Test results published in patent US20260007634A1, “PHARMACEUTICAL COMPOSITIONS FOR THE TREATMENT OF ALLERGIC DISEASES” (KINKI UNIVERSITY, priority 2022, published 2026).

Assays:
Th2 cells = test: Th2 cell activation in inflammation-induced mouse model (IL-4 flow cytometry); type: in vivo; conditions: DBA/1J mice, Freund's complete adjuvant + bovine type2 collagen; oral 10 mg/kg daily 20 days; thymus cells; vs vehicle group
Protocol: (§1) Equal volume mixtures of Freund's complete adjuvant and Bovine type2 collagen were administered to 6-week-old male DBA/1J mice (Japan SLC Inc.) at 0.1 mL (day 0 of the study). 21 days later, DBA/1J mice were again injected with 0.1 mL of the above mixture for secondary immunization. After the second immunization, mice were orally treated with 10 mg/kg of mangiferin 8a and 10 mg/kg of norathyriol daily for 20 days. 20 days later, thymus glands were harvested from mice and stained with anti-CD4 and anti-IL-4 antibodies, which are Th2 cell markers, and expression of IL-4 (CD4 positive) was measured using BD LSRFortessa.

IL-6 [1] = test: LPS-stimulated IL-6 secretion in macrophages (ELISA); type: cell-based, mouse; conditions: 10 μM compound, 10 μg/mL LPS 2 days, control 13.13, LPS 321.13
Protocol: Mouse macrophages were used to examine the inhibition of compounds on IL-6 secretion in LPS stimulation.
Mouse macrophages were cultured in RPMI 1640 medium for 1 day. Then, 10 μM mangiferin 8a and 10 μM norathyriol were added to macrophages, and after 1 day of culture, 10 μg/mL of LPS was added to each, followed by 2 days of culture. After these samples were incubated for 2 days, the culture supernatant was collected and IL-6 secretion was measured by enzyme-linked immunosorbent assay (ELISA). The mouse IL-6 ELISA kit (R&D) was used for this measurement.

Th1 cells = test: Th1 cell activation in inflammation-induced mouse model (IFNγ flow cytometry); type: in vivo; conditions: DBA/1J mice, Freund's complete adjuvant + bovine type2 collagen; oral 10 mg/kg daily 20 days; thymus cells; vs vehicle group
Protocol: as §1, with “anti-IFNγ” for “anti-IL-4”, “Th1” for “Th2”, “IFNγ” for “IL-4”

IL-6 [2] = test: BAFF-induced IL-6 secretion in B cells (ELISA); type: cell-based, mouse; conditions: DBA/1J spleen B cells; 10 μM compound, 100 ng/mL BAFF, 7 days; control 26.06, BAFF only 454.47
Protocol: Spleens were harvested from 6-week-old male DBA/1J mice and B cells were isolated. After isolation, the cells were cultured in RPMI 1640 medium for 1 day. Then, 10 μM mangiferin 8a and 10 μM norathyriol were added to B cells, and 100 ng/mL of BAFF was added to each 3 h later, and the cells were cultured for 7 days. After 7 days of culture, the culture supernatant was collected and IL-6 secretion was measured by enzyme-linked immunosorbent assay (ELISA). This assay was performed using a mouse IL-6 ELISA kit (R&D).

SMILES: O=c1c2cc(O)c(O)cc2oc2cc(O)cc(O)c12 [norathyriol, 1,3,6,7-tetrahydroxyxanthone]
- IL-4 expression (CD4 positive) (Th2 cells): markedly reduced
- IL-6 secretion (IL-6 [1]): 64.13 pg/mL
- IFNγ expression (CD4 positive) (Th1 cells): markedly reduced
- IL-6 secretion (IL-6 [2]): 61.39 pg/mL
